Test results: the Kinase Knowledgebase extract (Sharma et al. 2016)

molecular target: CDK2 (UniProt P24941); experiment: Enzyme Assay

Clc1ccccc1-c1ccc2c(-c3ccnc(NC4CC4)n3)cnn2n1 and COc1ccc2c(-c3ccnc(NC4CC4)n3)cnn2n1 cannot be ordered by IC50: under 1000 nM for the first, under 1000 nM for the second.

CN1CCN(c2ccc(Nc3nccc(-c4cnn5ncccc45)n3)cc2Cl)CC1 and Cc1cc(Nc2nccc(-c3cnn4ncccc34)n2)ccc1N1CCN(C)CC1 cannot be ordered by IC50: under 100 nM for the first, under 100 nM for the second.

FC(F)(F)c1cccc(Nc2nccc(-c3cnn4ncccc34)n2)c1 and N#Cc1cccc(Nc2nccc(-c3cnn4ncccc34)n2)c1 cannot be ordered by IC50: under 100 nM for the first, under 100 nM for the second.

NS(=O)(=O)c1ccc(Nc2nccc(-c3cnn4ncccc34)n2)cc1 and Clc1ccc(Nc2nccc(-c3cnn4ncccc34)n2)cc1 cannot be ordered by IC50: under 100 nM for the first, under 100 nM for the second.

O=[N+]([O-])c1cccc(Nc2nccc(-c3cnn4ncccc34)n2)c1 and c1cc(Nc2nccc(-c3cnn4ncccc34)n2)cc(-c2cnco2)c1 cannot be ordered by IC50: under 100 nM for the first, under 100 nM for the second.

O=C1CCCN1CCCNc1nccc(-c2cnn3ncccc23)n1 and CN(C)c1ccc(Nc2nccc(-c3cnn4nc(N5CCOCC5)ccc34)n2)cc1 cannot be ordered by IC50: under 100 nM for the first, under 1000 nM for the second.
